Measurements taken from patent US4461899A, “Fluorenecarboxylic acid derivatives” (Diamond Shamrock Chemicals Company, priority 1982, dated 1984).

How the values were obtained:
[1] = tested on: "Walter" variety tomato plants; test: Yield of "Walter" variety tomatoes, weekly harvest of mature red fruit; type: in vivo; details: for Total Fruit / Total Fruit, % of Control: weeks 1-6
Text: Compounds of this invention were further tested as tomato yield enhancers as follows:
"Walter" variety tomato plants, in the early flowering stage, were foliage sprayed at a rate of 68.8 liters/hectare with compounds of this invention, and with the commercial product, CF-125. Each plot consisted of 20 plants; the experimental design was a completed randomized block with three replications. A plot of untreated plants was included as a control. Marketable, mature red tomatoes were harvested weekly, beginning 5 weeks after treatment.

[2] = tested on: plants being treated; details: background; in many instances; cited from earlier work
[3] = tested on: field grown tomato plants; test: Fruit set and phytotoxicity in field grown tomato plants; type: in vivo; details: for Increase Over Control (%) of fruit set: 24 days; for Fruit Set Per Plant (After 24 days): 24 days after treatment; for Increase (%) of fruit set: initial to 24 days
Text: To determine fruit set effects by compounds of this invention, field grown tomato plants were foliage sprayed with the cis-2,5-dimethylpyrrolidine salt of […], 9-cis-2,5-dimethyl-1-pyrrolidinyl-2-chlorofluorene-9-carboxylic acid, methyl ester, and the commercial plant growth regulant, MAINTAIN CF-125 (methyl-2-chloro-9hydroxyfluorene-9-carboxylate, manufactured by U.S. Borax and Chemical Corp.). Rates of application employed were 5, 25, and 100 ppm when the tomato plants were in the late blooming to early fruit setting stage. Untreated plants were included in the test as controls. Five plants were sprayed for each chemical treatment. The number of fruit set and the degree of phytotoxicity to the plants were determined 24 days after treatment.

[4] = tested on: Kentucky and Merion turfgrass mixture; test: Turfgrass growth retardation (height and fresh weight of clippings) after spraying; type: in vivo; details: vs control
Method: Two known plant growth regulants were similarly tested. Some grass samples were not treated, only fertilized, as controls. Before treatment, the grass was cut and then fertilized with a 20-20-20 water-soluble fertilizer. Three pots were sprayed per treatment. […] The pots were placed in a plant growth room and were watered daily. The grass was cut at 21, 49 and 84 days after being treated; the blade height and total fresh weight of the clippings were measured.

[5] = tested on: field grown tomato plants; test: Overall yield and fruit size of field grown tomatoes; type: in vivo; details: for Fruit Size, Green (% of Control): control 104.0 g; for Fruit Size, Red (% of Control): control 105.5 g
Text: This example illustrates the effects of compounds of this invention on overall yield of tomatoes. For the test, field grown tomato plants, when in the early flowering stage, were foliage sprayed with the particular compounds of the invention designated below, and with the commercial product CF-125 (Maintain), at rates of 10, 50 and 500 ppm. These rates correspond to applications of 3.69 g, 18.54 g and 185.4 g/hectare, respectively. Each treatment consisted of five plants; the experimental design was a complete randomized block with three replications. A block of untreated plants was included as the control. The fruit was harvested by hand and separated into […] ripe fruit and marketable green fruit.

[6] = 1.12 kilogram/hectare, after 21 days
[7] = 1.12 kilogram/hectare, after 49 days
[8] = 1.12 kilogram/hectare, after 84 days
[9] = 2.24 kilogram/hectare, after 21 days
[10] = 2.24 kilogram/hectare, after 49 days
[11] = 2.24 kilogram/hectare, after 84 days
[12] = 4.48 kilogram/hectare, after 49 days
[13] = 4.48 kilogram/hectare, after 84 days

COC(=O)C1(O)c2ccccc2-c2ccc(Cl)cc21 (stereo not shown) [MAINTAIN CF-125, methyl-2-chloro-9-hydroxyfluorene-9-carboxylate]
Fruit Yield (kg/plot) ([1]; 5 ppm): 25.6 kg/plot | Total Yield Wt. % of Control ([1]; 5 ppm): 108.0 % of Control | Fruit harvested, Harvest Time (Week) 1 ([1]; 5 ppm): 34 | Fruit harvested, Harvest Time (Week) 2 ([1]; 5 ppm): 206 | Fruit harvested, Harvest Time (Week) 3 ([1]; 5 ppm): 139 | Fruit harvested, Harvest Time (Week) 4 ([1]; 5 ppm): 40 | Fruit harvested, Harvest Time (Week) 5 ([1]; 5 ppm): 29 | Fruit harvested, Harvest Time (Week) 6 ([1]; 5 ppm): 178 | Total Fruit ([1]; 5 ppm): 626 | Total Fruit, % of Control ([1]; 5 ppm): 109 % of Control | Fruit Yield (kg/plot) ([1]; 10 ppm): 15.3 kg/plot | Total Yield Wt. % of Control ([1]; 10 ppm): 64.8 % of Control | Fruit harvested, Harvest Time (Week) 1 ([1]; 10 ppm): 6 | Fruit harvested, Harvest Time (Week) 2 ([1]; 10 ppm): 192 | Fruit harvested, Harvest Time (Week) 3 ([1]; 10 ppm): 92 | Fruit harvested, Harvest Time (Week) 4 ([1]; 10 ppm): 16 | Fruit harvested, Harvest Time (Week) 5 ([1]; 10 ppm): 4 | Fruit harvested, Harvest Time (Week) 6 ([1]; 10 ppm): 69 | Total Fruit ([1]; 10 ppm): 379 | Total Fruit, % of Control ([1]; 10 ppm): 66 % of Control | Fruit Yield (kg/plot) ([1]; 50 ppm): 2.6 kg/plot | Total Yield Wt. % of Control ([1]; 50 ppm): 11.0 % of Control | Fruit harvested, Harvest Time (Week) 1 ([1]; 50 ppm): 15 | Fruit harvested, Harvest Time (Week) 2 ([1]; 50 ppm): 18 | Fruit harvested, Harvest Time (Week) 3 ([1]; 50 ppm): 8 | Fruit harvested, Harvest Time (Week) 4 ([1]; 50 ppm): 0 | Fruit harvested, Harvest Time (Week) 5 ([1]; 50 ppm): 0 | Fruit harvested, Harvest Time (Week) 6 ([1]; 50 ppm): 2 | Total Fruit ([1]; 50 ppm): 43 | Total Fruit, % of Control ([1]; 50 ppm): 7 % of Control | phytotoxicity, in words [2]: phytotoxic to the plants being treated | Increase Over Control (%) of fruit set ([3]; 5 ppm): -35% | Fruit Set Per Plant (After 24 days) ([3]; 5 ppm): 11.8 | Fruit Set Per Plant (Initial) ([3]; 5 ppm): 7.8 | Increase (%) of fruit set ([3]; 5 ppm): 38% | Increase Over Control (%) of fruit set ([3]; 25 ppm): -23% | Fruit Set Per Plant (After 24 days) ([3]; 25 ppm): 12.6 | Fruit Set Per Plant (Initial) ([3]; 25 ppm): 8.4 | Increase (%) of fruit set ([3]; 25 ppm): 50% | Increase Over Control (%) of fruit set ([3]; 100 ppm): -55% | Fruit Set Per Plant (After 24 days) ([3]; 100 ppm): 8.0 | Fruit Set Per Plant (Initial) ([3]; 100 ppm): 6.8 | Increase (%) of fruit set ([3]; 100 ppm): 18% | % Reduction in Weight [4, 6]: 31% | Reduction in Height [4, 6]: 36% | % Reduction in Weight [4, 7]: 0% | Reduction in Height [4, 7]: 3% | % Reduction in Weight [4, 8]: 0% | Reduction in Height [4, 8]: 0% | % Reduction in Weight [4, 9]: 38% | Reduction in Height [4, 9]: 42% | % Reduction in Weight [4, 10]: 0% | Reduction in Height [4, 10]: 0% | % Reduction in Weight [4, 11]: 0% | Reduction in Height [4, 11]: 0% | Reduction in Height ([4]; 4.48 kilogram/hectare, after 21 days): 50% | % Reduction in Weight [4, 12]: 4% | Reduction in Height [4, 12]: 14% | % Reduction in Weight [4, 13]: 0% | Reduction in Height [4, 13]: 0% | % Reduction in Weight ([4]; third dosage column, printed 1.12 kilogram/hectare, after 21 days): 52% | Fruit Yield, Green (% of Control) ([5]; 10 ppm): 25 % of Control | Fruit Yield, Red (% of Control) ([5]; 10 ppm): 24 % of Control | Total Yield (% of Control) ([5]; 10 ppm): 25 % of Control | Fruit Size, Green (% of Control) ([5]; 10 ppm): 104 % of Control | Fruit Size, Red (% of Control) ([5]; 10 ppm): 97 % of Control | Fruit Yield, Green (% of Control) ([5]; 50 ppm): 12 % of Control | Fruit Yield, Red (% of Control) ([5]; 50 ppm): 122 % of Control | Total Yield (% of Control) ([5]; 50 ppm): 44 % of Control | Fruit Size, Green (% of Control) ([5]; 50 ppm): 62 % of Control | Fruit Size, Red (% of Control) ([5]; 50 ppm): 88 % of Control | Fruit Yield, Green (% of Control) ([5]; 500 ppm): 3 % of Control | Fruit Yield, Red (% of Control) ([5]; 500 ppm): 79 % of Control | Total Yield (% of Control) ([5]; 500 ppm): 29 % of Control | Fruit Size, Green (% of Control) ([5]; 500 ppm): 54 % of Control | Fruit Size, Red (% of Control) ([5]; 500 ppm): 108 % of Control
